Test systems include A549 NSCLC; CAKI-1 renal; EKVX NSCLC; HCT-116 colon; NCI-H226 lung; NCI-H23 lung; NCI-H460 lung; OVCAR-4 ovarian; OVCAR-5 ovarian; SK-MEL-5 melanoma; SN12C renal; UO-31 renal.
Assay in all cases: DTP human tumour cell line panel, 48 h

We go through 14 molecules from PubChem BioAssay (NCI).

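How tested: cells in 96-well plates exposed to compound for 48 hours at five concentrations. GI50 marks 50% less growth. TGI: concentration producing complete growth inhibition.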

Turning to `CC(C)[C@](O)(C(=O)OCC1CC[N+]2([O-])CC[C@@H](O)C12)[C@H](C)O` (some centres undefined), the TGI was > 375 µM with A549 NSCLC; > 375 µM in the assay with CAKI-1 renal; > 375 µM in the assay on EKVX NSCLC; > 256 µM in the assay on HCT-116 colon; > 375 µM with NCI-H226 lung; > 375 µM in the assay with NCI-H23 lung. In addition, the TGI in the assay with NCI-H460 lung was > 159 µM; in the assay on OVCAR-4 ovarian, > 375 µM; in the assay with OVCAR-5 ovarian, > 375 µM; with SK-MEL-5 melanoma it was > 375 µM; in the assay on SN12C renal, > 375 µM; with UO-31 renal it was > 375 µM.

For the molecule `Cc1ccc(S(=O)(=O)OC2C(C3COC(C)(C)O3)OC3OC(C)(C)OC32)cc1` (centres undefined), the TGI in the assay on A549 NSCLC, in the assay with CAKI-1 renal, in the assay with EKVX NSCLC, in the assay with HCT-116 colon, in the assay with NCI-H226 lung and in the assay with NCI-H23 lung was > 100 µM throughout. For the same molecule, the TGI in the assay on NCI-H460 lung, with OVCAR-4 ovarian, with OVCAR-5 ovarian, in the assay on SK-MEL-5 melanoma, with SN12C renal and in the assay with UO-31 renal was > 100 µM in each case.

Turning to `Cc1ccc(-c2csc(=Nc3c(C)n(C)n(-c4ccccc4)c3=O)n2CCO)cc1`, the concentration for total growth inhibition (TGI) with A549 NSCLC, in the assay on CAKI-1 renal, with EKVX NSCLC, in the assay with NCI-H226 lung, in the assay with NCI-H23 lung and in the assay with NCI-H460 lung was > 100 µM throughout. Further, the TGI with OVCAR-4 ovarian, in the assay on OVCAR-5 ovarian, in the assay on SN12C renal and with UO-31 renal was > 100 µM each time.

Turning to `CCCCN1C(=O)NC(Cc2ccccc2)C1=O` (centres undefined), the TGI in the assay with A549 NSCLC, with CAKI-1 renal, with EKVX NSCLC, with NCI-H226 lung, in the assay with NCI-H23 lung and in the assay on NCI-H460 lung was > 100 µM throughout. Besides, the TGI with OVCAR-5 ovarian, in the assay with SN12C renal and in the assay on UO-31 renal was > 100 µM in each case.

In the case of `O=[n+]1c2ccccc2n([O-])c2cc(Br)ccc21`, the TGI was 39.4 µM in the assay on A549 NSCLC; 17.2 µM with CAKI-1 renal; 49.9 µM in the assay on EKVX NSCLC; > 100 µM in the assay on HCT-116 colon; 48.5 µM with NCI-H226 lung; 49.6 µM in the assay with NCI-H23 lung. Further, the TGI in the assay on NCI-H460 lung is > 100 µM; in the assay with OVCAR-4 ovarian, 45.2 µM; with OVCAR-5 ovarian it was > 100 µM; in the assay on SK-MEL-5 melanoma, 39.5 µM; with SN12C renal, 42.3 µM; with UO-31 renal, 28.1 µM.

Regarding `CC#C[I+]c1ccccc1`, the TGI with A549 NSCLC is > 100 µM; in the assay with CAKI-1 renal, 27.9 µM; with EKVX NSCLC it was 36.7 µM; in the assay on HCT-116 colon it was 35.3 µM; with NCI-H226 lung, > 100 µM; with NCI-H23 lung it was 39.7 µM. For the same molecule, the TGI with NCI-H460 lung was > 100 µM; with OVCAR-4 ovarian, 46.3 µM; in the assay with OVCAR-5 ovarian, 77.8 µM; in the assay with SK-MEL-5 melanoma it was 48.5 µM; in the assay on SN12C renal, 25.6 µM; in the assay with UO-31 renal, 97.5 µM.

With `COc1ccc(N2C(=O)C3c4[nH]c5cccc(C)c5c4C4CCC(C(C)(C)C)CC4C3C2=O)cc1` (centres undefined), the TGI with A549 NSCLC, in the assay with CAKI-1 renal, in the assay on EKVX NSCLC, in the assay with HCT-116 colon, in the assay with NCI-H226 lung and with NCI-H23 lung was > 10 µM each time. In addition, the TGI was > 10 µM in the assay on NCI-H460 lung; 2.26 µM in the assay on OVCAR-4 ovarian; > 10 µM in the assay with OVCAR-5 ovarian; > 10 µM with SK-MEL-5 melanoma; > 10 µM in the assay with SN12C renal; > 10 µM in the assay with UO-31 renal.

For the molecule `COc1cc2c3c(n(CCCNCCCNCCCn4c5c(c6ccccc6c4=O)C(=O)c4ccccc4-5)c(=O)c2cc1OC)-c1cc2c(cc1C3=O)OCO2`, the GI50 in the assay with A549 NSCLC was 0.0201 µM; in the assay on CAKI-1 renal, 0.158 µM; with EKVX NSCLC, < 0.01 µM; in the assay on HCT-116 colon, < 0.015 µM; with NCI-H23 lung, < 0.01 µM; with NCI-H460 lung, < 0.01 µM. In addition, the GI50 is 0.0298 µM in the assay on SK-MEL-5 melanoma and 0.0272 µM in the assay with UO-31 renal. Besides, the TGI in the assay on A549 NSCLC amounted to 2.3 µM; in the assay with CAKI-1 renal, 2.53 µM; in the assay on EKVX NSCLC, 0.578 µM; in the assay with HCT-116 colon, 0.263 µM; with NCI-H23 lung, 0.0826 µM; in the assay with NCI-H460 lung it was 0.0113 µM. Besides, the TGI turned out to be 0.634 µM in the assay with SK-MEL-5 melanoma and 1.69 µM with UO-31 renal.

Take `CC(=O)Oc1ccccc1C(=O)O`: the TGI in the assay with A549 NSCLC, with CAKI-1 renal, in the assay on EKVX NSCLC, in the assay on HCT-116 colon, in the assay with NCI-H226 lung and in the assay on NCI-H23 lung was > 100 µM in each case. Besides, the TGI in the assay on OVCAR-4 ovarian, with OVCAR-5 ovarian, in the assay with SK-MEL-5 melanoma, with SN12C renal and with UO-31 renal was > 100 µM each time.

Regarding `Clc1c(Cl)c2c(Cl)c(Cl)c1C[P+](c1ccccc1)(c1ccccc1)CC[P+](c1ccccc1)(c1ccccc1)Cc1c(Cl)c(Cl)c(c(Cl)c1Cl)C[P+](c1ccccc1)(c1ccccc1)CC[P+](c1ccccc1)(c1ccccc1)C2`, the TGI turned out to be 18.8 µM with A549 NSCLC; 33.1 µM with CAKI-1 renal; 21.7 µM in the assay on EKVX NSCLC; 9.71 µM with HCT-116 colon; 20.2 µM in the assay on NCI-H226 lung; 5.25 µM with NCI-H23 lung. In addition, the TGI in the assay with NCI-H460 lung turned out to be 12.4 µM; with OVCAR-4 ovarian it was 8.59 µM; with OVCAR-5 ovarian, 13.2 µM; in the assay with SK-MEL-5 melanoma, 3.13 µM; in the assay with SN12C renal it was 15.3 µM; in the assay with UO-31 renal, 21.2 µM.

Take `Cn1c(-c2ccc(/C=N\N3CCN(/N=C/c4ccc(-c5c[n+]6ccsc6n5C)cc4)CC3)cc2)c[n+]2ccsc12`: the TGI with A549 NSCLC, with CAKI-1 renal, in the assay on EKVX NSCLC, in the assay on HCT-116 colon, with NCI-H226 lung and in the assay on NCI-H23 lung was > 100 µM throughout. For the same molecule, the TGI in the assay on NCI-H460 lung was > 100 µM; in the assay on OVCAR-4 ovarian, > 100 µM; with OVCAR-5 ovarian, > 100 µM; in the assay with SK-MEL-5 melanoma, 84.6 µM; in the assay on SN12C renal, > 100 µM; with UO-31 renal, > 100 µM.

Consider `CCCCCCCCCCCCCCCCOCC(COP(=O)([O-])OCC[N+](C)(C)C)OCCCCCCCCCCCCCCCC` (centres undefined), for which the TGI with CAKI-1 renal, in the assay on EKVX NSCLC, in the assay with HCT-116 colon, in the assay with NCI-H226 lung, in the assay with NCI-H23 lung and in the assay with NCI-H460 lung was > 100 µM in each case. The TGI in the assay with OVCAR-4 ovarian, with OVCAR-5 ovarian, in the assay on SK-MEL-5 melanoma, in the assay with SN12C renal and in the assay on UO-31 renal was > 100 µM in each case.

`CCO[C@]12C[C@H](OC)[C@@]3(O)CC(C1[C@H]3O)C13C4C2[C@H](OC)C1[C@](COC)(CN4CC)[C@H](O)C[C@@H]3OC` (some centres undefined): the TGI in the assay on A549 NSCLC, in the assay with EKVX NSCLC, in the assay with HCT-116 colon, in the assay with NCI-H226 lung, with NCI-H23 lung and in the assay with NCI-H460 lung was > 100 µM each time. The TGI in the assay on OVCAR-4 ovarian, in the assay on OVCAR-5 ovarian, in the assay with SK-MEL-5 melanoma, with SN12C renal and with UO-31 renal was > 100 µM throughout.

Consider `OCCN(CCO)c1ccc2c(c1)Cc1ccccc1-2`, for which the TGI is > 100 µM in the assay with A549 NSCLC; 32 µM in the assay with CAKI-1 renal; > 100 µM with EKVX NSCLC; > 100 µM with HCT-116 colon; > 100 µM in the assay with NCI-H226 lung; > 100 µM with NCI-H23 lung. Moreover, the TGI in the assay with NCI-H460 lung is 50 µM; in the assay with OVCAR-4 ovarian it was > 100 µM; in the assay on OVCAR-5 ovarian, > 100 µM; with SK-MEL-5 melanoma it was > 100 µM; with SN12C renal, > 100 µM; in the assay with UO-31 renal, > 100 µM.
